What all share (experiment): NCI anticancer screen, dose series, 48 h
Experiment [1] deals with COLO 205 colon.
The subject of experiment [2] is HCT-116 colon.
Experiment [3] relates to LOX IMVI melanoma.
Experiment [4] concerns RXF 393 renal.
For experiment [5], the system named is SK-MEL-2 melanoma.
Experiment [6] relates to SN12C renal.

The structures appear in SMILES notation.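 Dose response: 5 concentrations. Exposure: 48 h. Format: 96-well plates. Endpoint: linear interpolation; highest concentration if not reached. At the GI50, growth is halved. The concentration for full growth arrest is given as TGI.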 Non-standard residues stand in square brackets, D forms with d. Residues, ends and D or L forms follow the SMILES beside them. *: point of attachment. ONb = O=[N+]([O-])c1ccc(CO*)cc1; AllylGly = C=CC[CH](N)C(=O)O; Boc = CC(C)(C)OC(=O)*

Regarding `N#Cc1c(-c2nc3ccccc3s2)c(=O)oc2cc(O)ccc12`, the TGI is 30.8 µM in experiment [1]; over 100 µM in experiment [2]; over 100 µM in experiment [3]; over 100 µM in experiment [4]; over 100 µM in experiment [5]; over 100 µM in experiment [6].
In the case of `COc1cc2c3c(n(C)c(=O)c2cc1OC)-c1cc2c(cc1/C3=C\CCCCCN)OCO2`, the GI50 was 5.8 µM in experiment [1], 7 µM in experiment [4], 31 µM in experiment [5] and 0.271 µM in experiment [6]. Also, the TGI in experiment [1] is over 100 µM; in experiment [4] it was 41 µM; in experiment [5], over 100 µM; in experiment [6], 18.4 µM.
As for `COc1ccc2cc(C(=O)/C=C/c3cc(OC)c(OC)c(OC)c3)ccc2c1`, the GI50 in experiment [1] was 13.7 µM; in experiment [2], 1.62 µM; in experiment [3], 2.55 µM; in experiment [6] it was 1.73 µM. Besides, the TGI was over 50 µM in experiment [1], 8.27 µM in experiment [2], 11 µM in experiment [3] and 8.78 µM in experiment [6].
For the molecule `N=C1C(c2nc(-c3ccc(Br)cc3)cs2)=C(O)CN1Cc1cccnc1`, the GI50 in experiment [1] was 11.9 µM; in experiment [2] it was 1.75 µM; in experiment [3], 12 µM; in experiment [4], 7.98 µM; in experiment [5] it was 11.2 µM; in experiment [6] it was 26.8 µM. The TGI in experiment [1] was 38.4 µM; in experiment [2], 24 µM; in experiment [3] it was 29.4 µM; in experiment [4] it was 31.3 µM; in experiment [5], 80.5 µM; in experiment [6] it was over 100 µM.
Turning to `C=C1C(=O)O[C@H]2[C@H]1CC/C(COC(=O)c1cc3cc(F)ccc3[nH]1)=C\CC[C@@]1(C)O[C@@H]21`, the GI50 is 1.64 µM in experiment [1]; 1.5 µM in experiment [2]; 1.05 µM in experiment [3]; 1.47 µM in experiment [4]; 1.95 µM in experiment [5]; 1.85 µM in experiment [6]. For the same molecule, the TGI in experiment [1] was determined as 3.37 µM; in experiment [2], 2.96 µM; in experiment [3], 2.46 µM; in experiment [4], 2.87 µM; in experiment [5], 4.27 µM; in experiment [6] it was 3.92 µM.
As for `O=C(Oc1ccc(Cl)cc1Cl)c1ccccc1Nc1ccnc(C(F)(F)F)c1`, in experiment [5], the GI50 was 20.5 µM and the TGI was over 100 µM. Moreover, in experiment [6], the GI50 is 3.01 µM and the TGI worked out at 7.63 µM.
Consider `Cc1ncc(CN=Cc2ccc(Cl)cc2)c(N)n1`, for which the TGI in experiment [1], in experiment [2], in experiment [3], in experiment [4], in experiment [5] and in experiment [6] was over 100 µM each time.
For `ClCc1cccc(Cn2cnc3c(Cl)ncnc32)c1`, the GI50 in experiment [1] was 3.09 µM; in experiment [2], 1.48 µM; in experiment [3], 1.96 µM; in experiment [4], 2.28 µM; in experiment [5], 22.1 µM; in experiment [6], 2.32 µM. Besides, the TGI in experiment [1] was 10.5 µM; in experiment [2] it was 3.07 µM; in experiment [3] it was 5.02 µM; in experiment [4] it was 24 µM; in experiment [5] it was 51.1 µM; in experiment [6], 5.13 µM.
In the case of `Cc1ccc(-[n+]2c3cc(N)c(C)cc3nc3cc(C)c(Nc4ccccc4)cc32)cc1`, in experiment [1], the GI50 is 0.0461 µM and the TGI was determined as 0.326 µM. In addition, in experiment [5], the GI50 was 0.235 µM and the TGI worked out at 0.538 µM.
`CN(C)c1cccc2c(S(=O)(=O)N[C@H]3CC[C@H]4[C@@H]5CCc6cc(O)ccc6[C@H]5CC[C@]34C)cccc12`: the GI50 was 2.27 µM in experiment [2], 2.02 µM in experiment [4], 2.37 µM in experiment [5] and 1.64 µM in experiment [6]. For the same molecule, the TGI in experiment [2] came out at 5.85 µM; in experiment [4], 4.34 µM; in experiment [5] it was 5.48 µM; in experiment [6] it was 3.43 µM.
With `N#CCC1COc2ccccc2O1` (stereo not given), the TGI in experiment [1], in experiment [2], in experiment [3] and in experiment [6] was over 10 µM each time.
For `N#Cc1c(Sc2ccccc2N)cccc1Sc1ccccc1N`, the GI50 was 34.9 µM in experiment [1], 71.9 µM in experiment [2], 72.8 µM in experiment [4] and 42.1 µM in experiment [6].
As to `C=C1C(=O)O[C@H]2[C@H]1CC/C(Cn1cc(CNC(=O)Cc3cn(C(=O)c4ccc(Cl)cc4)c4ccc(OC)cc34)nn1)=C\CC[C@@]1(C)O[C@@H]21`, the GI50 in experiment [1] is 2.04 µM; in experiment [2], 1.19 µM; in experiment [4], 1.25 µM; in experiment [5], 2.01 µM; in experiment [6], 1.62 µM. Further, the TGI was 4.22 µM in experiment [1]; 2.55 µM in experiment [2]; 2.59 µM in experiment [4]; 4.18 µM in experiment [5]; 3.21 µM in experiment [6].
Turning to `COc1ccc(-c2nc3sc(C)cn3c2/C=C/C(=O)c2cc(OC)c(OC)c(OC)c2)cc1`, the GI50 in experiment [1] is 4.7 µM; in experiment [2] it was 3.8 µM; in experiment [3], 3.51 µM; in experiment [6] it was 4.07 µM. For the same molecule, the TGI in experiment [1], in experiment [2], in experiment [3] and in experiment [6] was over 100 µM each time.
On to `COc1ccc2nc(N/N=C(\C)c3ccccn3)cc(C)c2c1`, for which the GI50 is 0.024 µM in experiment [1]; 0.363 µM in experiment [2]; 0.236 µM in experiment [3]; 0.174 µM in experiment [5]; 0.317 µM in experiment [6]. Also, the TGI in experiment [1] is 1.15 µM; in experiment [2], 1.13 µM; in experiment [3], 1.28 µM; in experiment [5], 0.973 µM; in experiment [6], 1.71 µM.
In the case of `C=CCC(NC(=O)OC(C)(C)C)C(=O)NC(CCC(=O)OCc1ccc([N+](=O)[O-])cc1)C(N)=O` (stereo not given) (Boc-[AllylGly]-Glu(ONb)-NH2; configuration not given here), the GI50 was 22.9 µg/mL in experiment [1], 49 µg/mL in experiment [3], 26.5 µg/mL in experiment [5] and 57.5 µg/mL in experiment [6]. Besides, the results for the TGI in experiment [1] and in experiment [5] were 53.1 µg/mL and 68.8 µg/mL, respectively.
On to `COC(=O)N[C@H]1CCc2c(Br)c(OC)c(OC)c(OC)c2-c2ccc(SC)c(=O)cc21`, for which the GI50 in experiment [2], in experiment [3] and in experiment [6] was under 0.01 µM each time. In addition, the TGI in experiment [2] was determined as 11.5 µM; in experiment [3], 12 µM; in experiment [6], 25.5 µM.
`COc1ccc(Cl)cc1Nc1nc(C(F)(F)F)ccc1C(=O)N/N=C/c1c(Cl)cccc1Cl`: the GI50 in experiment [2] was 3.3 µM; in experiment [3], 5.14 µM; in experiment [4] it was 17.9 µM; in experiment [5] it was 5.62 µM; in experiment [6], 8.78 µM. Further, the TGI is over 100 µM in experiment [2]; over 100 µM in experiment [3]; 58.8 µM in experiment [4]; over 100 µM in experiment [5]; over 100 µM in experiment [6].
Take `O=c1oc2cc(OS(=O)(=O)c3ccc(F)cc3)ccc2c2c1CCCCC2`: the GI50 is 2.17 µM in experiment [1]; 6.24 µM in experiment [2]; over 100 µM in experiment [3]; over 100 µM in experiment [5]; over 100 µM in experiment [6]. Moreover, the TGI in experiment [1], in experiment [2], in experiment [3], in experiment [5] and in experiment [6] was over 100 µM in each case.
Regarding `CCOC(=O)c1c2c(n3ccc(NC(=O)CCN4CCCC4)cc13)C(=O)c1ncccc1C2=O`, the GI50 in experiment [2] is 0.175 µM; in experiment [4], 1.41 µM; in experiment [5] it was 18.5 µM; in experiment [6], 1.43 µM. For the same molecule, the TGI in experiment [2] is 1.94 µM; in experiment [4] it was 3.36 µM; in experiment [5] it was 39.3 µM; in experiment [6] it was 3.47 µM.
`COc1ccc(N=C2CSc3nnc(-c4cc(F)c(Cl)cc4Cl)n3N2)cc1`: the GI50 in experiment [1] is 1.81 µM; in experiment [2] it was 0.43 µM; in experiment [3], 0.897 µM; in experiment [5], 2.75 µM; in experiment [6] it was 2.61 µM. Also, the TGI in experiment [1] is 16 µM; in experiment [2], 1.96 µM; in experiment [3], 11.1 µM; in experiment [5], 13.4 µM; in experiment [6] it was 14.4 µM.
Turning to `O=[N+]([O-])c1ccc(C(c2c[nH]c3ccccc23)c2c[nH]c3ccccc23)cc1`, the TGI is 21.8 µM in experiment [1], 41.2 µM in experiment [3], 20.1 µM in experiment [5] and 35.2 µM in experiment [6].
With `COc1cc(C2C=C(c3cccc(NC(C)=O)c3)Nc3ncnn32)cc(OC)c1OC` (stereo not given), the GI50 was 0.308 µM in experiment [1]; 0.424 µM in experiment [2]; 0.596 µM in experiment [3]; 0.576 µM in experiment [4]; 0.489 µM in experiment [6]. The TGI was 1.73 µM in experiment [1]; over 70.2 µM in experiment [2]; over 100 µM in experiment [3]; over 100 µM in experiment [4]; over 100 µM in experiment [6].

(Values after PubChem BioAssay (NCI).)
